This is an account of results in patent US20050054629A1, “Compounds and methods of treating cell proliferative diseases” (priority 2002, published 2005).

SMILES strings stand for the structures.

One test deals with H460 lung carcinoma. Nature of the test: Cytotoxicity assay (MTT), 6 days. Format: cell-based. To be noted: Homo sapiens, NCI-H460, 144 h, 6 days of treatment, read-out: Toxicity 6d (IC 50, μM) H460. A digest of the protocol:
(§1)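 5.10^3 or 2.10^4 cells/well plated, dosed next day (0, 1, 10, 17.5, 25, 50 μM; DMSO 1%). 6 d exposure → MTT 0.5 mg/ml, 3 h 37° C → DMSO solubilization → A550. IC50 calc., n=3.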

Another test concerns MCF-7 breast carcinoma. The test can be described thus: Cytotoxicity assay (MTT), 6 days. Format: cell-based. To be noted: Homo sapiens, MCF7, 144 h, 6 days of treatment, read-out: Toxicity 6d (IC 50, μM) MCF7. The essentials: as §1
A further test deals with MCF10-A. Nature of the test: Cytotoxicity assay (MTT), 6 days. The class given is cell-based. The conditions noted are these: Homo sapiens, MCF-10A, 144 h, 6 days of treatment, read-out: Toxicity 6d (IC 50, μM) MCF10-A. The essentials:
as §1

For test [1], the system named is MDA-MB-231 breast carcinoma. The test can be described thus: Cytotoxicity assay (MTT), 6 days. The class given is cell-based. To be noted: Homo sapiens, MDA-MB-231, 144 h, 6 days of treatment, read-out: Toxicity 6d (IC 50, μM) MDA231. A digest of the protocol: as §1
A further test relates to MRC-5. Nature of the test: Cytotoxicity assay (MTT), 6 days. The class given is cell-based. The conditions noted are these: Homo sapiens, MRC5, 144 h, 6 days of treatment, read-out: Toxicity 6d (IC 50, μM) MRC-5. A digest of the protocol:
as §1

A further test has as its system NIH3T3 mouse fibroblasts. The test can be described thus: Cytotoxicity assay (MTT), 6 days. The class given is cell-based. To be noted: NIH3T3, 144 h, 6 days of treatment, read-out: Toxicity 6d (IC 50, μM) NIH3T3. A digest of the protocol:
as §1

The test system of test [2] is HCT116 colon adenocarcinoma. The test can be described thus: Cytotoxicity assay (MTT), 6 days. The conditions noted are these: Homo sapiens, HCT-116, 144 h, 6 days of treatment, read-out: Toxicity 6d (IC 50, μM) HCT116. Format: cell-based, human. The essentials: as §1
A further test concerns HCT116 cells. The test can be described thus: Anchorage-independent growth assay (soft agar / Matrigel). The class given is cell-based, human. To be noted: Homo sapiens, HCT-116, 168 h; HCT116, 3-dimensional growth, 1 week. How it is done:
In order to evaluate the effect of the compounds on the capacity of tumor cells to grow without anchorage, HCT116 cells were seeded either in agar or in Matrigel (BD, France). For 3D growth experiment in soft agar in 24-well plates, 5.10^3 HCT116 cells were resuspended in 250 μl of complete medium containing 0.3% soft-agar (Difco) and different concentrations of compound (0.1, 1, 10, 17.5, 25 and 50 μM). Cells were then poured on a solidified layer of medium containing 0.5% of soft-agar plus the compound at the same concentration than in the upper layer. Cells were incubated at 37° C. for 1 week before they were analysed using a phase contrast microscope (Nikon). For 3D growth experiment in Matrigel, 10^4 HCT116 cells were resuspended in 300 μl of complete medium containing 5 mg/ml Matrigel (BD, France) and different concentrations of compound (0.1, 1, 10, 17.5, 25 and 50 μM), and poured in 24-well plates. After solidification at 37° C. for 15 min., complete medium containing the compound was added to each well. Cells were incubated for 1 week before they were collected using Matrisperse (BD, France) according to the manufacturer's instructions. After recovery, alive cells were counted with trypan blue exclusion.

Test [3] relates to MDA-MB-231 cells. Nature of the test: Matrigel invasion assay (Boyden chamber). Format: cell-based, human. A digest of the protocol:
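MDA-MB-231 cells were pretreated overnight with compound (1, 10, 17.5, 25, 50 μM). 10^5 cells in serum-free 0.1% BSA medium with compound were placed on 8 μm membranes coated with Matrigel (125 μg/cm^2), with 10% FBS plus compound below. After 6 h at 37 °C, cells on the filter underside were Diff-Quick stained and counted.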

A further test deals with Ras. Nature of the test: Ras-dependant signaling pathway analysis (reporter system). The class given is cell-based. Set-up: key: −: no effect of the compound was observed; +: an effect of the compound was observed. A digest of the protocol:
(§2)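 Ras and Rac signalling were measured with reporter systems. For colony formation, NIH3T3 cells were transfected with RasV12 or RacV12 plus neomycin plasmids, then grown 2-3 weeks in 400 μg/ml geneticin with compound at 1, 10, 17.5, 25 or 50 μM. Fuchsin-stained colonies of ≥50 cells were counted.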

The test system of a further test is NIH3T3 cells. The test can be described thus: Colony formation assay with constitutively activated Ras (RasV12) and Rac (RacV12). The class given is cell-based, mouse. Set-up: key to Colony formation: −: no effect of the compound was observed; +: an effect of the compound was observed. The essentials:
as §2

The next test deals with cell architecture. The test can be described thus: Cell architecture modification, phase contrast. The class given is cell-based. Set-up: key: −: no effect of the compound was observed; +: an effect of the compound was observed.
The test system of another test is NIH3T3. Nature of the test: Cytoskeleton analysis, actin staining (FITC-phalloidin). The class given is cell-based, mouse. How it is done: (§3) Since major rearrangements of cytoskeleton are observed in tumor cells and since the small GTPases are known to regulate these events, analysis of actin cytoskeleton was performed. Subconfluent cells seeded onto coverslips were treated with different concentration of compound (1, 10, 17.5, 25 and 50 μM) or vehicle for 24 h, before being fixed in 4% formaldehyde for 15 min., permeabilized in 0.2% Triton X100 for 5 minutes and incubated in PowerBlock (Biogenex) for 10 min. Actin filaments were stained with 0.5 μg/ml fluorescein isothiocyanate (FITC)-labelled phalloidin for 1 hour. Analysis was performed using an inverted fluorescent microscope.

The next test relates to H460. Described as above. To be noted: 24 h treatment. Format: cell-based, human. How it is done:
as §3

A further test concerns HCT116. The test is described as above. The conditions noted are these: 24 h treatment. Format: cell-based, human. How it is done:
as §3

Test [4] deals with MDA-MB-231 cells. Nature of the test: Migration assay (Boyden chamber, non-coated filters). Format: cell-based, human. The conditions noted are these: MDA-MB-231, Boyden chamber. How it is done: One day after seeding, 10^6 MDA-MB-231 cells were treated overnight with different concentrations of compounds (1, 10, 17.5, 25 and 50 μM). Cells were collected with Versene (Invitrogen), counted with trypan blue exclusion, rinsed twice in serum-free medium containing 0.1% BSA and resuspended in serum-free medium containing 0.1% BSA plus the appropriate concentration of compound. 10^5 treated cells were placed in the upper chamber. Medium containing 10% of FBS plus the appropriate concentration of compound was placed in the lower chamber as a chemoattractant. The Boyden chamber was incubated 6 hours at 37° C. before the cells were fixed and stained with Diff-Quick (Dade-Berhing). Cells on the upper part of the filters were removed using a cotton swab. Cells on the underside of the filters were visualised and counted under light microscope.
The migration assay was performed the same way, using non-coated filters.

On to `CCCc1ccccc1OCCCCCOc1coc(CO)cc1=O` [EH18900, 5-[5-(2-Propylphenyloxy)pentyloxy]-2-(hydroxymethyl)-4H-pyran-4-one], for which the IC50 was 40 µM in the test on H460 lung carcinoma; 30 µM in the test on MCF-7 breast carcinoma; 50 µM with MCF10-A; more than 50 µM in [1]; 17.5 µM with MRC-5; 0.5 µM in the test on NIH3T3 mouse fibroblasts. The IC50 in [2] was 35 µM; in the test on HCT116 cells it was 1 to 5 µM. Moreover, in the test on MDA-MB-231 cells [3], the “concentration giving an increase in invasive properties of MDA-MB-231 cells” value was 50 µM. Also, the Invasion result with MDA-MB-231 cells [3] (MDA-MB-231, Boyden chamber, matrigel) is “Increase”. Moreover, the “Small GTPases activities Ras” value in the test on Ras is listed as “−”. In the test on NIH3T3 cells, the Colony formation entry was “+”. Further, the “Ras-dependent neoR clones formation” value with NIH3T3 cells (NIH3T3 transfected with RasVal12) is listed as “inhibited”. Moreover, the “Cell architecture modification phase contrast” value in the test with cell architecture is “+”. Besides, the “Cell architecture modification actin staining (R: ruffles; FC: focal complexes) NIH3T3” value in the test with NIH3T3 (24 h treatment) is “R-, FC+”. Further, in the test with NIH3T3 (NIH3T3, actin staining), the “concentration at which specific inhibition of membrane ruffles and increase in the number of stress fibers was observed” value stood at 10 µM. Further, the “Cell architecture modification actin staining H460” value in the test on H460 is recorded as “cell spreading”. Besides, the “Cell architecture modification actin staining HCT116” value in the test on HCT116 is “cell spreading”. Further, the Migration entry in the test on MDA-MB-231 cells [4] is on record as “no effect”.
